Experiments:
[1] = tested on: human iPS cell-derived myocardial cells; assay: Heart rate of myocardial cells by MEA, serum-free culture medium with isoproterenol and carbachol added; type: cell-based; settings: serum-free culture medium with 1 μmol/L isoproterenol and 3 μmol/L carbachol; cumulative drug concentrations, 20 minutes after addition; vs medium control
Procedure: (§1) Example 4: Method and results of evaluating increase in heart rate by muscarinic receptor inhibitor (atropine) using serum-free culture medium to which adrenergic receptor agonist (isoproterenol) and muscarinic receptor agonist (carbachol) are added Human iPS cell-derived myocardial cells (iCell myocardial cells 2.0, manufactured by FUJIFILM Cellular Dynamics, Inc.) in a frozen state were thawed, suspended in a thawing culture medium (iCell myocardial cell thawing culture medium, manufactured by FUJIFILM Cellular Dynamics, Inc.), and then seeded at a cell density of 50,000 cells per well on a MEA plate (Cyto View MEA 48, manufactured by Axion BioSystems, Inc.). The seeding density of myocardial cells in the vicinity of the electrode was 2,725 cells/mm^2. After the plate was allowed to stand in a CO2 incubator for several hours, a maintenance culture medium (iCell myocardial cell maintenance culture medium, manufactured by FUJIFILM Cellular Dynamics, Inc.) containing serum was added, and the myocardial cells were cultured in the CO2 incubator for about one week. The culture medium was exchanged with a serum-free culture medium (a myocardial cell serum-free assay culture medium, manufactured by FUJIFILM Cellular Dynamics, Inc.) on the day before the measurement.
(§2) On the day of measurement, the MEA plate on which human iPS cell-derived myocardial cells were cultured was placed in an MEA system (Maestro Pro, manufactured by Axion BioSystems, Inc.), 1 μmol/L of isoproterenol (manufactured by Tokyo Chemical Industry Co., Ltd.) and 3 μmol/L of carbachol (manufactured by Tokyo Chemical Industry Co., Ltd.) were added to the culture medium, and then the extracellular potential was measured after 20 minutes from the addition (medium control, atropine concentration: 0 μmol/L). Subsequently, 0.01 μmol/L of atropine (manufactured by Tokyo Chemical Industry Co., Ltd.) was added to the MEA plate, and then the extracellular potential was measured after 20 minutes from the addition. Similarly, atropine was added to give concentrations of 0.1 μmol/L and 1 μmol/L, and then the extracellular potential was measured at each concentration.
From the measurement results of the extracellular potential, the interval between sharp peaks indicating depolarization of human iPS cell-derived myocardial cells was taken as the beating time (sec), and the heart rate (/min)=60/beating time (sec) was calculated. The addition of atropine was confirmed to result in an increase in heart rate of up to 51% (FIG. 7).
In the same manner as in Example 4, evaluation was carried out using an MEA plate on which human iPS cell-derived myocardial cells were cultured. Specifically, the same operations as in Example 4 were carried out except that atropine added in Example 4 was changed to tiotropium (manufactured by Tokyo Chemical Industry Co., Ltd.) and the concentration of tiotropium added was 1 pmol/L, 10 pmol/L, 100 pmol/L, and 1,000 pmol/L.
In the same manner as in Example 4, evaluation was carried out using an MEA plate on which human iPS cell-derived myocardial cells were cultured. Specifically, the same operations as in Example 4 were carried out except that atropine added in Example 4 was changed to glycopyrronium (manufactured by Tokyo Chemical Industry Co., Ltd.) and the concentration of glycopyrronium added was 0.01 nmol/L, 0.1 nmol/L, 1 nmol/L, and 10 nmol/L.
In the same manner as in Example 4, evaluation was carried out using an MEA plate on which human iPS cell-derived myocardial cells were cultured. Specifically, the same operations as in Example 4 were carried out except that the atropine added in Example 4 was changed to propranolol (manufactured by FUJIFILM Wako Pure Chemical Corporation) and the concentration of propranolol added was 0.1 nmol/L, 1 nmol/L, 10 nmol/L, and 100 nmol/L.
In the same manner as in Example 4, evaluation was carried out using an MEA plate on which human iPS cell-derived myocardial cells were cultured. […]

[2] = tested on: human iPS cell-derived myocardial cells; assay: Heart rate of myocardial cells by MEA, serum-free culture medium with isoproterenol added; type: cell-based; settings: serum-free culture medium with 1 μmol/L isoproterenol; cumulative drug concentrations, 20 minutes after addition; vs medium control
Procedure: as §1, with “1:” for “4:”, “decrease” for “increase”, “agonist (carbachol)” for “inhibitor (atropine)”, “is” for “and muscarinic receptor agonist (carbachol) are”, “2,671” for “2,725”, “The culture medium was exchanged with a serum-free culture medium (a myocardial cell serum-free assay culture medium, manufactured by FUJIFILM Cellular Dynamics, Inc.) on the day before the measurement.” left out
as §2, with “Ltd.) was” for “Ltd.) and 3 μmol/L of carbachol (manufactured by Tokyo Chemical Industry Co., Ltd.) were”, “control, carbachol” for “control, atropine”, “of carbachol” for “of atropine”, “Similarly, carbachol” for “Similarly, atropine”, “0.1 μmol/L, 1 μmol/L,” for “0.1 μmol/L”, “and 10” for “and 1”
From the measurement results of the extracellular potential, the interval between sharp peaks indicating depolarization of human iPS cell-derived myocardial cells was taken as the beating time (sec), and the heart rate (/min)=60/ beating time (sec) was calculated. […]

CC(C)NCC(O)COc1ccc(CC(N)=O)cc1 (stereo not shown) [atenolol]
decrease in heart rate [1]: up to 22%

C[N+]1(C)[C@@H]2C[C@@H](OC(=O)C(O)(c3cccs3)c3cccs3)C[C@H]1[C@@H]1O[C@@H]12 [tiotropium]
increase in heart rate [1]: up to 36%

CC(=O)Oc1ccccc1C(=O)O [aspirin]
increase in heart rate [1]: at most 17%

C[N+]1(C)CCC(OC(=O)C(O)(c2ccccc2)C2CCCC2)C1 (stereo not shown) [glycopyrronium]
increase in heart rate [1]: up to 36%

CC(C)NCC(O)COc1cccc2ccccc12 (stereo not shown) [propranolol]
decrease in heart rate [1]: up to 28%

CC1OC2(CS1)CN1CCC2CC1 (stereo not shown) [cevimeline]
decrease in heart rate [2]: up to 26%

CC[C@@H]1C(=O)OC[C@@H]1Cc1cncn1C [pilocarpine]
decrease in heart rate [2]: up to 15%

— patent US20250354979A1, “DRUG EVALUATION METHOD, REAGENT, AND KIT” (FUJIFILM Corporation, priority 2023, published 2025)
